Measurements: US20220017520A1, “MACROCYCLIC COMPOUND AS CDK INHIBITOR, PREPARATION METHOD THEREFOR, AND USE THEREOF IN MEDICINE” (Keythera (Suzhou) Pharmaceuticals Co. Ltd., priority 2018, published 2022)
Like-named read-outs stand apart in the source and are kept apart here.

Experiments:
neointima formation = conditions: rats; cited from earlier work
CDK4/D3 = CDK4/D3 (Homo sapiens, UniProt P11802); experiment: Inhibitory activity on CDK4 kinase by Caliper Mobility Shift method; format: biochemical; conditions: CDK4/D3, 28° C. for 5 hours
Procedure: Determination of Inhibitory Effect on CDK4/Cyclin D1
The determination of IC50 of CDK4/Cyclin D1 was conducted according to the following process. A 96-well filter plate (Millipore MADVN6550) was used. The total volume was 0.1 ml, containing buffer solution A (20 mM TRIS (tris[hydroxymethyl]aminomethane) (pH7.4), 50 mM NaCl, 1 mM dithiothreitol, 10 mM MgCl2), 2 μM ATP (containing […][32P]ATP), 20 ng CDK4, […] retinoblastoma protein and the test compound diluted in buffer solution A in an appropriate ratio. Buffer solution A alone without the test compound was used as the control without inhibitory effect. Buffer solution A containing excess EDTA was used to determine the background 32P level in the absence of enzymatic activity. All components except ATP were added to the wells, and the plate was shaked on a plate mixer for 2 minutes. [32P]ATP was added to initiate the reaction, and the plate was incubated at 25° C. for 15 minutes. 0.1 ml of 20% trichloroacetic acid (TCA) was added to stop the reaction. The plate was kept at 4° C. for at least 1 hour to allow the substrate to precipitate. The wells were washed five times with 0.2 ml of 10% TCA, and the binding of 32P was measured using a R plate counter (wallac Inc., Gaithersburg, Md.). IC50 of the test compound was determined by median effect method (Chou, T-C and Talalay P. Applications of the median effect principle for the assessment of low-dose risk of carcinogens and for the quantitation of synergism and antagonism of chemotherapeutic agents. In New Avenues in Developmental Cancer Chemotherapy (Eds. Harrap, K. T. and Connors, T. A.), pp. 37-64. Academic Press, New York, 1987).
(§1) Experimental method: Inhibitory activity on CDK4/6 kinase was determined by Caliper Mobility Shift method
1) Preparation of 1-fold CDK4 kinase buffer solution
800 μL of 1000 mM HEPES stock solution (pH 7.5) and 40 μL of 10% Triton X-100 stock solution were added to 39160 μL of ultra pure water, and the resulting solution was mixed well.
(§2) 25 mL of 4% Coating Reagent #3 (provided with the 12-sipper chip used in Caliper device) stock solution, 50 mL of 1000 mM HEPES stock solution (pH 7.5), 50 mL of 0.5 M EDTA stock solution and 0.25 mL of 30% Brij-35 stock solution were added to 374.75 mL of ultra pure water, and the resulting solution was mixed well.
1) Preparation of 2.5-fold CDK4/D3 kinase solution
7 μL of CDK4/D3 enzyme solution and 9 μL of 1M DTT stock solution were added to 1784 μL of 1-fold CDK4 kinase buffer solution, and the resulting solution was mixed well.
1) Preparation of 2.5-fold CDK4/D3 polypeptide solution
10 µL of 100 mM ATP stock solution, 45 μL of 1M MgCl2 stock solution and 45 μL of FAM-labelled polypeptide 8 were added to 1700 μL of 1-fold CDK4 kinase buffer solution, and the resulting solution was mixed well.
(§3) A 10 mM solution of the test compound in DMSO was diluted with DMSO to obtain a solution with a concentration of 50 μM, which was used as the stock solution. Said stock solution was subjected to 4-fold gradient dilution with DMSO to obtain solutions with a concentration of […], 3.12 μM, 0.78 μM, 0.19 μM, 0.048 μM, 12.2 nM, 3 nM, 0.76 nM and 0.19 nM, respectively. Each of the resulting solution was 10-fold diluted with 1-fold kinase buffer solution to obtain a 5-fold compound solution.
(§4) 1) 5 μL of the prepared 5-fold test compound solution and 10 μL of the prepared 2.5-fold kinase solution were added to the corresponding wells in a 384-well plate, and the plate was incubated at room temperature for 10 minutes.
(§5) 2) 10 μL of the prepared 2.5-fold polypeptide solution was added to the corresponding wells to start the enzymatic reaction, and the plate was incubated at 28° C. for 5 hours.
(§6) 25 μL of stop solution was added to each corresponding well to stop the reaction.
(§7) 8. The data was read by the Caliper device, the inhibition rate was calculated by the following formula, and curve fitting was carried out by GraphPad5.0 software to obtain the IC50 value.

[1] = amide bond, HATU, dichloromethane, 25.0 °C, 16.0 h
CDK6/D3 = CDK6/D3 (Homo sapiens, UniProt Q00534); experiment: Inhibitory activity on CDK6 kinase by Caliper Mobility Shift method; format: biochemical; conditions: CDK6/D3, 28° C. for 5 hours
Procedure: as §1
2) Preparation of 1-fold CDK6 kinase buffer solution
50 mL of 1000 mM HEPES stock solution (pH 7.5) and 50 μL of 30% Brij-35 stock solution were added to 949.95 mL of ultra pure water, and the resulting solution was mixed well.
as §2
2) Preparation of 2.5-fold CDK6/D3 kinase solution 18 μL of CDK6/D3 enzyme solution and 14 μL of 1M DTT stock solution were added to 2768 μL of 1-fold CDK6 kinase buffer solution, and the resulting solution was mixed well.
2) Preparation of 2.5-fold CDK6/D3 polypeptide solution
23 μL of 100 mM ATP stock solution, 75 μL of 1M MgCl2 stock solution and 75 μL of FAM-labelled polypeptide 8 were added to 2827 μL of 1-fold CDK6 kinase buffer solution, and the resulting solution was mixed well.
as §3, §4, §5, §6, §7

MCF-7 cells = experiment: In vitro cell proliferation assay by BrdU method; format: cell-based; conditions: Homo sapiens, MCF7, 72 hours, 10% FBS
Procedure: In Vitro Cell Inhibitory Activity of the Compound of the Present Invention
Experimental method: Cell proliferation assay was carried out by BrdU method (BrdU cell proliferation assay kit, Cell Signaling Technology Co.)
Preparation of gradient dilution solution of test compound: the 10 mM stock solution of test compound was subjected to 4-fold serial gradient dilution with DMSO to obtain solutions with a concentration of 2.5 mM, […], respectively. 2 μL of DMSO-diluted compound was added to 198 μL of culture medium containing 10% FBS to obtain 10-fold test compound, wherein the maximum concentration of the test compound was 10 μM, the DMSO concentration was 1%, with a total of 7 concentration gradients.
MCF-7 culture medium: DMEM+10% FBS+0.01 mg/mL insulin
(1) Cells grown to 80% (in exponential growth phase) were digested with pancreatin, and were collected by centrifugation. MDA-MB-435S cells and U87MG cells were re-suspended in a FBS-free culture medium, counted and inoculated to a 96-well plate; MDA-MB-435S cells were inoculated at 3000 cells/well/81 μL, and U87MG cells were inoculated at 4000 cells/well/81 μL. MCF-7 cells were resuspended in a culture medium containing 1% FBS, counted and inoculated to a 96-well plate at 4000 cell/well/82 μL. The cells were incubated in a cell incubator at 37° C.
(2) After 24 hours of incubation, FBS (9 μL) was added to each well of the MDA-MB-435S cells and U87MG cells, and 8 μL of FBS was added to each well of the MCF-7 cells, so as to obtain a final FBS concentration of 10%.
(3) A different concentration of 10-fold test compound (10 μL) was added to each well to obtain a final concentration of test compound of 10 μM, 2.5 μM, 625 nM, 156 nM, 39 nM, 9.8 nM or 2.5 nM, respectively, with 3 repeated wells/group, and the cells were incubated at 37° C. for 72 hours.
(4) 10-fold BrdU solution (10 μL) was added to each well, and the cells were incubated in the incubator for 4 hours, followed by discarding the culture medium.
(5) Fixing/denaturation solution (10 μL) was added to each well, and the cells were incubated at room temperature for 30 minutes, followed by discarding the solution.
(6) 1-fold detection antibody solution (100 μL) was added to each well, the cells were incubated at room temperature for 1 hour, followed by discarding the solution, and the cells were washed with 1-fold washing solution (200 μL/well) three times.
(7) 1-fold HRP-labelled secondary antibody solution (100 μL) was added to each well, the cells were incubated at room temperature for 30 minutes, followed by discarding the solution, and the cells were washed with 1-fold washing solution (200 μL/well) three times.
(8) TMB substrate solution (100 μL) was added to each well, and the cells were incubated at room temperature for 30 minutes.
(9) Stop solution (100 μL) was added to each well, and the OD value at 450 nm was measured by a microplate reader.
1) Cell survival rate (%)=(ODtest compound−ODblank control)/(ODnormal cell control−ODblank control)×100%,
2) The data was processed by GraphPad Prism 5 software to obtain the curve and IC50 values.

Sequence of CDK4/D3 (P11802 whole entry, species assumed): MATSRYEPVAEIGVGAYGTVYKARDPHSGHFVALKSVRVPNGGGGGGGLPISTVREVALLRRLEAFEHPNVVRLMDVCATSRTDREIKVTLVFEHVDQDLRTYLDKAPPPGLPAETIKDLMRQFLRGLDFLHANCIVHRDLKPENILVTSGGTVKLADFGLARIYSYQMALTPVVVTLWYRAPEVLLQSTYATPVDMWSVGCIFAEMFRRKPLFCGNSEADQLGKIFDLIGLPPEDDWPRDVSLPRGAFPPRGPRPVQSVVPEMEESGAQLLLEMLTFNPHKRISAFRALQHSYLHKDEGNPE
Sequence of CDK4/D3 (P30281 whole entry partner, species assumed): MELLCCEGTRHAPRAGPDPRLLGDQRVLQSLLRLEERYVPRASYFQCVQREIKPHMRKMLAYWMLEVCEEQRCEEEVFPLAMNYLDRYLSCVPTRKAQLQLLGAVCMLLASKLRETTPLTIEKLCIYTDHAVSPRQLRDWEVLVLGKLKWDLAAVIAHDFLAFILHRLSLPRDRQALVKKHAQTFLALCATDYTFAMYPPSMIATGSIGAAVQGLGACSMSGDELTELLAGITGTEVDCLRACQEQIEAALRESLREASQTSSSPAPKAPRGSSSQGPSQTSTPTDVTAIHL
Sequence of CDK6/D3 (Q00534 whole entry, species assumed): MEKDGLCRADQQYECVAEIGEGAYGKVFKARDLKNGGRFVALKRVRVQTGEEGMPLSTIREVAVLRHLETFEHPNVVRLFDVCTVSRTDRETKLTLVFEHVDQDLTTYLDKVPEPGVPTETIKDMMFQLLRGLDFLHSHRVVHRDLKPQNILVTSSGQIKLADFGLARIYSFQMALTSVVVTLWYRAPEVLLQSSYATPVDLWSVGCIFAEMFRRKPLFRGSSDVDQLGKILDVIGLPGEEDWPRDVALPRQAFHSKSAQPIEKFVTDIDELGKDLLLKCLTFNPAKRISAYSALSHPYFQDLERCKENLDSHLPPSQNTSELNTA
Sequence of CDK6/D3 (P30281 whole entry partner, species assumed): as the sequence (P30281 whole entry partner, species assumed) above

Structure (SMILES)	IC50 (CDK4/D3)	IC50 (CDK6/D3)	IC50 (MCF-7 cells)	also measured
COc1ccc(CNc2nc(N(CCO)CCO)nc3c2ncn3C(C)C)cc1 [CVT-313]				inhibition of neointima formation (neointima formation): greater than 80%
CCN1CCN(Cc2cnc3cc2NC(=O)CC(C)n2c(C)nc4c(F)cc(cc42)-c2nc(ncc2F)N3)CC1 (stereo not shown) [Example 1, 4^5-((4-Ethylpiperazin-1-yl)methyl)-1^4,2^5-difluoro-1^2,8-dimethyl-1^1H-3,5-diaza-1(6,1)-benzo[d]imidazola-2(4,2)-pyrimidina-4(2,4)-pyridinacyclooctaphan-6-one]	0.7 nM	0.48 nM	142 nM	ring closure, yield of all isomers ([1]; from CCN1CCN(Cc2cnc(Nc3ncc(F)c(-c4cc(F)c5nc(C)n(C(C)CC(=O)O)c5c4)n3)cc2N)CC1, 14.0 mM): 8.3%
CCN1CCN(Cc2cnc3cc2NC(=O)C[C@@H](C)n2c(C)nc4c(F)cc(cc42)-c2nc(ncc2F)N3)CC1 [Example 2, (R)-4^5-((4-Ethylpiperazin-1-yl)methyl)-1^4,2^5-difluoro-1^2,8-dimethyl-1^1H-3,5-diaza-1(6,1)-benzo[d]imidazola-2(4,2)-pyrimidina-4(2,4)-pyridinacyclooctaphan-6-one]	0.49 nM	0.35 nM	42 nM	ring closure, yield of all isomers ([1]; from CCN1CCN(Cc2cnc(Nc3ncc(F)c(-c4cc(F)c5nc(C)n([C@H](C)CC(=O)O)c5c4)n3)cc2N)CC1, 13.8 mM): 7.4%
CCN1CCN(Cc2cnc3cc2NC(=O)CCn2c(C)nc4c(F)cc(cc42)-c2nc(ncc2F)N3)CC1 [Example 4, 4^5-((4-Ethylpiperazin-1-yl)methyl)-1^4,2^5-difluoro-1^2-methyl-1^1H-3,5-diaza-1(6,1)-benzo[d]imidazola-2(4,2)-pyrimidina-4(2,4)-pyridinacyclooctaphan-6-one]	0.78 nM	1.13 nM	132 nM	ring closure, yield of all isomers ([1]; from CCN1CCN(Cc2cnc(Nc3ncc(F)c(-c4cc(F)c5nc(C)n(CCC(=O)O)c5c4)n3)cc2N)CC1, 18.0 mM): 7.3%
CCN1CCN(Cc2cnc3cc2NCCC(C)n2c(C)nc4c(F)cc(cc42)-c2nc(ncc2F)N3)CC1 (stereo not shown) [Example 5, 4^5-((4-Ethylpiperazin-1-yl)methyl)-1^4,2^5-difluoro-1^2,8-dimethyl-1^1H-3,5-diaza-1(6,1)-benzo[d]imidazola-2(4,2)-pyrimidina-4(2,4)-pyridinacyclooctaphane]	21 nM	14 nM		

Continued by falling IC50 (CDK4/D3), values first:

IC50 (CDK4/D3)	IC50 (CDK6/D3)	IC50 (MCF-7 cells)	Structure (SMILES)	also measured
15 nM	27 nM	4120 nM	CCN1CCN(Cc2cnc3cc2NC(=O)C[C@H](C)n2c(C)nc4c(F)cc(cc42)-c2nc(ncc2F)N3)CC1 [Example 3, (S)-4^5-((4-Ethylpiperazin-1-yl)methyl)-1^4,2^5-difluoro-1^2,8-dimethyl-1^1H-3,5-diaza-1(6,1)-benzo[d]imidazola-2(4,2)-pyrimidina-4(2,4)-pyridinacyclooctaphan-6-one]	
8 nM	10 nM		CCN1CCN(Cc2cnc3cc2NC(=O)CC(C)(C)n2c(C)nc4c(F)cc(cc42)-c2nc(ncc2F)N3)CC1 [Example 8, 4^5-((4-Ethylpiperazin-1-yl)methyl)-1^4,2^5-difluoro-1^2,8,8-trimethyl-1^1H-3,5-diaza-1(6,1)-benzo[d]imidazola-2(4,2)-pyrimidina-4(2,4)-pyridinacyclooctaphan-6-one]	
5 nM	12 nM		CCN1CCN(Cc2cnc3cc2NC(=O)CC2(CC2)n2c(C)nc4c(F)cc(cc42)-c2nc(ncc2F)N3)CC1 [Example 9, 5′-((4-Ethylpiperazin-1-yl)methyl)-4′,5′-difluoro-2′-methylspiro[cyclopropane-1,8′-3,5-diaza-1(6,1)-benzo[d]imidazola-2(4,2)-pyrimidina-4(2,4)-pyridinacyclooctaphan]-6′-one]	
1.5 nM	2.5 nM		CCN1CCN(Cc2cnc3cc2NC(=O)CC(C)n2ccc4ccc(cc42)-c2nc(ncc2F)N3)CC1 (stereo not shown) [Example 7, 4^5-((4-Ethylpiperazin-1-yl)methyl)-2^5-fluoro-8-methyl-1^1H-3,5-diaza-1(6,1)-indola-2(4,2)-pyrimidina-4(2,4)-pyridinacyclo-octaphan-6-one]	ring closure, yield of all isomers ([1]; from CCN1CCN(Cc2cnc(Nc3ncc(F)c(-c4ccc5ccn(C(C)CC(=O)O)c5c4)n3)cc2N)CC1, 14.0 mM): 33.3%
